Reference: PubChem BioAssay (NCI)
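Assay format: 96-well plates, 48-hour exposure. The concentration for full growth arrest is given as TGI.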 Where a SMILES comes first, the peptide text is derived from it. The star is where a group is joined. Bn = c1ccc(C*)cc1

Legend:
Test in all cases: NCI-60 cell line screen, 48 h
[1] = tested on: HOP-92 NSCLC
[2] = tested on: HS 578T breast
[3] = tested on: MDA-MB-231 breast
[4] = tested on: MDA-MB-435
[5] = tested on: MDA-N
[6] = tested on: RXF 393 renal
[7] = tested on: SK-MEL-28 melanoma
[8] = tested on: TK-10 renal
[9] = tested on: U251 CNS
[10] = tested on: UACC-257 melanoma

Row | Compound | TGI [1] [µM] | TGI [2] [µM] | TGI [3] [µM] | TGI [4] [µM] | TGI [5] [µM] | TGI [6] [µM] | TGI [7] [µM] | TGI [8] [µM] | TGI [9] [µM] | TGI [10] [µM]
1 | CCc1nc2cc3cccnc3c(Cl)c2[nH]c1=O | > 100 | > 100 | > 100 | > 100 | > 100 | 91.1 | > 100 | > 100 | > 100 | > 100
2 | Cc1cc(/N=C/c2ccc(C#N)cc2)n(-c2ccccc2)n1 | > 100 | > 100 | > 100 | > 100 | > 100 | > 100 | > 100 | > 100 | > 100 | > 100
3 | Cc1ccc(-c2c(C#N)c(-c3ccc([N+](=O)[O-])cc3)c(C#N)c(=O)n2NS(=O)(=O)c2ccccc2)cc1 | 85.9 | 33.1 | > 100 | > 100 | > 100 | > 100 | > 100 | > 100 | > 100 | > 100
4 | COc1ccc(N=Nc2c3c(c(O)c4ccccc24)CCC(C)(C)O3)cc1 | 47.1 | 66.7 | 63.9 | 32.4 | 30.6 | 34 | 43.1 | 65.8 | 37.9 | 37.5
5 | CC(C)(C)c1ccc(OCC(=O)O)c(Cl)c1 | > 100 | > 100 | > 100 | > 100 | > 100 | > 100 | > 100 | > 100 | > 100 | > 100
6 | Nc1nc(Nc2ccccc2)sc1C(=O)c1c[nH]c2ccccc12 | 33.2 | 42.5 | 32.3 | 23.2 | 25.3 | 23.1 | 26.3 | 11 | 23.6 | 22.6
7 | COC(=O)C1(Cc2ccc3c(c2)CCC3)Cc2cc3c(cc2C1)CCC3 | > 100 | > 100 | > 100 | > 100 | > 100 | 68.8 | > 100 | > 100 | > 100 | 62.2
8 | COC(=O)[C@H](Cc1ccccc1)NC(=O)c1ccc(CNC(=O)/C=C/c2cccc(Oc3ccccc3)c2)cc1 | 21 | 46.3 | 48.6 | 28.3 | 15.3 | 24.2 | 23.9 | 92.5 | > 100 | 21.8
9 | COc1cc(C=C2C(=O)NC(=S)NC2=O)cc(OC)c1OC | > 100 | > 100 | > 100 | > 100 | > 100 | > 100 | > 100 | > 100 | > 100 | > 100
10 | O=C1CS(=O)C23c4cc5ccccc5n4CCC2CCCN13 (stereo not given) | > 100 | > 100 | > 100 | > 100 | > 100 | > 100 | > 100 | > 100 | > 100 | > 100
11 | COC(=O)C(CC(C)C)NC(=O)C(N)Cc1ccc(OCc2ccccc2)cc1 (stereo not given) (H-Tyr(Bn)-Leu-OMe; configuration not given here) | > 10 | > 10 | > 10 | > 10 | > 10 | > 10 | > 10 | > 10 | > 10 | > 10
12 | COC(=O)c1cc2c(cc1CC(Cc1ccc3c(c1)CCC3)C(=O)OC)CCC2 (stereo not given) | > 100 | > 100 | > 100 | > 100 | > 100 | 65.3 | > 100 | > 100 | > 100 | 81.3
13 | COc1ccc(/C=N/N2C(=O)c3c(N)c(C#N)c(-c4ccccc4)c(-c4ccccc4)c3C2=O)cc1 | > 100 | > 100 | > 100 | > 100 | > 100 | > 100 | > 100 | > 100 | > 100 | > 100
14 | COc1cc2c(cc1OC)C13CC[N+]4(C)CC5=CCOC6CC(=O)N2C1C6C5CC34[O-] (stereo not given) | > 100 | > 100 | > 100 | > 100 | > 100 | > 100 | > 100 | > 100 | > 100 | > 100
15 | Cc1cn2c(C)csc2c1P(=O)(OC(C)C)OC(C)C | > 100 | > 100 | > 100 | > 100 | > 100 | > 100 | > 100 | > 100 | > 100 | > 100
16 | Cc1cn([C@H]2C[C@](C)(CO)N(C)O2)c(=O)[nH]c1=O | > 100 | > 100 | > 100 | > 100 | > 100 | > 100 | > 100 | > 100 | > 100 | > 100
17 | CC1(C)[C@@H](Cn2cnc3c(Cl)nc(N)nc32)CC[C@@]1(C)CO | > 100 | 44.9 | > 100 | 64.2 | 91.7 | > 100 | > 100 | > 100 | > 100 | 79.2
